Read-outs that look alike come from different tables or passages of the source.
Assays:
[1] = molecular target: T1, mTOR (Homo sapiens, UniProt P42345); test: mTOR kinobeads assay (dot blot detection); assay type: binding
T1 construct: endogenous in cells; host or cells: Jurkat cells (ATCC TIB-152, clone E6-1), lysate
Outline: (§1)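 Jurkat cell lysate (5 mg/ml protein) was incubated with test compounds and kinobeads (immobilized phenylthiazole and phenylmorpholin-chromen ligands) for 2 h in the cold with shaking. Bead-bound kinase was SDS-eluted and quantified by antibody dot blot with infrared detection. IC50 values came from dose-response curves.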

[2] = molecular target: T2, PI3K delta (PI3Kd) (Homo sapiens, UniProt O00329); test: kinobeads assay, PI3K delta (dot blot detection); assay type: binding
T2 construct: endogenous in cells; host or cells: Jurkat cells (ATCC TIB-152, clone E6-1), lysate
Outline: as §1

[3] = molecular target: T3, DNA-dependent protein kinase (DNA-PK) (Homo sapiens, UniProt P78527); test: kinobeads assay, DNA-PK (dot blot detection); assay type: binding
T3 construct: endogenous in cells; host or cells: Jurkat cells (ATCC TIB-152, clone E6-1), lysate
Outline: as §1

[4] = molecular target: T4, PI3Kα (Homo sapiens, UniProt P42336); test: kinobeads assay, PI3K alpha (dot blot detection); assay type: binding; settings: Table 4, read-out: Inhibition values (IC50) PI3Ka
T4 construct: endogenous in cells; host or cells: Jurkat cells (ATCC TIB-152) lysate, the only lysate described

[5] = molecular target: T5, PI3Kβ (Homo sapiens, UniProt P42338); test: kinobeads assay, PI3K beta (dot blot detection); assay type: binding; settings: Table 4, read-out: Inhibition values (IC50) PI3Kb
T5 construct: endogenous in cells; host or cells: Jurkat cells (ATCC TIB-152) lysate, the only lysate described

[6] = molecular target: T6, PI3Kγ (Homo sapiens, UniProt P48736); test: kinobeads assay, PI3K gamma (dot blot detection); assay type: binding; settings: Table 4, read-out: Inhibition values (IC50) PI3Kg
T6 construct: endogenous in cells; host or cells: Jurkat cells (ATCC TIB-152) lysate, the only lysate described

[7] = test system: S6RP serine-240/244 phosphorylation in HEK293T/17 cells; test: In vitro phospho-S6 cellular assay (pS6RP S240/244); assay type: cell-based; settings: Homo sapiens, Table 6, 2 hours, S6RP Ser240/244, read-out: pS6 (phospho-S6 cell assay data, activity level)
Description: In Vitro Phospho-S6 and Phospho-Akt Cellular Assay
Activation of mTOR signaling results in phosphorylation of several downstream targets. In cells, mTOR exists in two different protein complexes. The mTOR Complex-1 (mTORC1) phosphorylates and activates S6 Kinase 1 (S6K1) and S6 Kinase 2 (S6K2) (also known as p70S6K) which then phosphorylate S6 Ribosomal Protein (S6RP) (also known as RPS6). S6RP is phosphorylated on serine 235, serine 236, serine 240 and serine 244 by both pS6K1 and pS6K2. The mTOR Complex-2 (mTORC2) phosphorylates AKT on serine 473 which activates the AKT signaling pathway.
The assay measures a test compound's inhibition of S6RP serine-240/244 phosphorylation and inhibition of Akt serine-473 phosphorylation in human embryonic kidney derived HEK293T/17 cells (ATCC CRL-11268).
The HEK293T/17 cell line is maintained in DMEM media (Invitrogen catalogue number 41965-039) supplemented with 10% FCS at 37° C. in a 5% CO2 humidified incubator.
Cells are seeded in 96-well plates at 40,000 cells/well (pS6RP S240/244 assay) or 80,000 cells/well (pAkt 5473 assay) in 90 μl growth media (DMEM, 2% FCS). Plates are incubated for 1 hour in a humidified incubator to allow the cells to adhere. Cells are treated with 8 concentrations of test compounds or DMSO alone for controls (final DMSO concentration 0.1%) and incubated at 37° C. for 2 hours. Then 20 μl of 5× concentrated lysis buffer (750 mM NaCl, 100 mM Tris pH7.4, 5 mM EDTA, 5 mM EGTA, 5% Triton X-100) is added, plates are sealed and incubated for 15 minutes at 4° C. with gentle shaking. After cell lysis, 25 μl cell lysate is transferred to a MesoScale plate coated with an antibody to pS6RP Ser240/244 (MesoScale Discovery K150DGD-3) or an antibody to pAkt Ser 473 (MesoScale Discovery K151DGD-3). Plates have been blocked before by incubation with 150 μl MesoScale Discovery Blocking Solution-A for 1 hour at room temperature followed by washing with 150 μl 1× Tris wash buffer per well. After the transfer of the cell lysate to the MSD plate, the pS6RP (or pAkt) protein is captured on the coated antibody by incubation at room temperature for 1 hour with gentle shaking. After the capture step the plate is washed three times with 150 μl of 1× Tris wash buffer per well. Then 25 μl detection antibody conjugated with a Sulfo-Tag is added and incubated for 1 hour at room temperature with gentle shaking. Subsequently the antibody solution is removed and the plate is washed 3 times with 150 μl 1× Tris wash buffer per well and 150 μl Read buffer is added. The plates are analysed on a MSD 2400 Plate Reader (MesoScale Discovery). Data analysis is performed using nonlinear regression for a sigmoidal dose-response with a variable slope.

[8] = Table 2, Jurkat cell lysate, read-out: Inhibition values (IC50) mTor
[9] = Table 4, read-out: Inhibition values (IC50) mTOR
[10] = Table 2, Jurkat cell lysate, read-out: Inhibition values (IC50) PI3Kd
[11] = Table 4, read-out: Inhibition values (IC50) PI3Kd
[12] = Table 2, Jurkat cell lysate, read-out: Inhibition values (IC50) DNAPK
[13] = Table 4, read-out: Inhibition values (IC50) DNAPK

T4 sequence (P42336 whole entry): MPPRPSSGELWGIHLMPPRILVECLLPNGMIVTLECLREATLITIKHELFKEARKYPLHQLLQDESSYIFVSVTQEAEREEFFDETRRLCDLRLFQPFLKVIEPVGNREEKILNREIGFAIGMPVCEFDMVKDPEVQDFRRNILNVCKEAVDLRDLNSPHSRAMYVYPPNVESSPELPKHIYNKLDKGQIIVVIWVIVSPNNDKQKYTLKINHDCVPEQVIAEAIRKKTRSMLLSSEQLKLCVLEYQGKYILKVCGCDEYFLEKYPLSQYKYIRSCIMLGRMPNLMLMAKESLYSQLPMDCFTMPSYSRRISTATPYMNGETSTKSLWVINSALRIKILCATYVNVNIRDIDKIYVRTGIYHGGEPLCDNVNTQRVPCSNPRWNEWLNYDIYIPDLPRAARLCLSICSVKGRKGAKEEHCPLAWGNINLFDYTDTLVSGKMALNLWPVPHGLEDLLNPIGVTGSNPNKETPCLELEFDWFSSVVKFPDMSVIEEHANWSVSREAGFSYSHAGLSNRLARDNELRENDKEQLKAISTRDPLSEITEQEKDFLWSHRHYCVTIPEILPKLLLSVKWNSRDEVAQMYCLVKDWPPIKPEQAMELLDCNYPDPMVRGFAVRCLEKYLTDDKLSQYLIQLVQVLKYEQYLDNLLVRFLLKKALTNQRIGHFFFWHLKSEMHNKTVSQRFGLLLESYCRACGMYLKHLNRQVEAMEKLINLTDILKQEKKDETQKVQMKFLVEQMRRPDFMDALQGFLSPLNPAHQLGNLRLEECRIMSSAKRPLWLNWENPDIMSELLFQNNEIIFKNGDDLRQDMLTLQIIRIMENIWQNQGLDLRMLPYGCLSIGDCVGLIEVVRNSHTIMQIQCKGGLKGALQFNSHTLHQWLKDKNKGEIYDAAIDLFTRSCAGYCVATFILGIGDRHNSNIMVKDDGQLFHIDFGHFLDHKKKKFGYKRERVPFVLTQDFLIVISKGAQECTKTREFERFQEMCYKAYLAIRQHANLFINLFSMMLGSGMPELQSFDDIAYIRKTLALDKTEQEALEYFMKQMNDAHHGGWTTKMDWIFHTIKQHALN
T4 sequence (P27986 whole entry partner): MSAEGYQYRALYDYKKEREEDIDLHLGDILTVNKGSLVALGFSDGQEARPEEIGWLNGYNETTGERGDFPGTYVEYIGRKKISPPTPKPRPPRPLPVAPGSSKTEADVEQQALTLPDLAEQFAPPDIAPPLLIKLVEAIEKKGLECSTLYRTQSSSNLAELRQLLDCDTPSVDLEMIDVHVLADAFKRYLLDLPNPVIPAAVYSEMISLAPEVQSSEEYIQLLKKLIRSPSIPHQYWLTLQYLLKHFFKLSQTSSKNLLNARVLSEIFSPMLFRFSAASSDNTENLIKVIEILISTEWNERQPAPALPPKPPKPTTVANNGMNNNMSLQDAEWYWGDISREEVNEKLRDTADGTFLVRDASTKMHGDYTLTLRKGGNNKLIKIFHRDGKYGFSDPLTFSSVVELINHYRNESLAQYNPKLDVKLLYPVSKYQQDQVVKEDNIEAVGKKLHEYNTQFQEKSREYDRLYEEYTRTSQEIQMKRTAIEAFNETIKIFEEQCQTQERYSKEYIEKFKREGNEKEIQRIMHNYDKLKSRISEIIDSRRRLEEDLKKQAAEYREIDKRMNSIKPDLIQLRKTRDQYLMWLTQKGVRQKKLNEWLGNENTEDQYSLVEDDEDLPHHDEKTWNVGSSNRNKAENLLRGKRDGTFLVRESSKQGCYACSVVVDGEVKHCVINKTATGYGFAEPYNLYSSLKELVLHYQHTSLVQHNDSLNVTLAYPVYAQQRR
T6 sequence (P48736 whole entry): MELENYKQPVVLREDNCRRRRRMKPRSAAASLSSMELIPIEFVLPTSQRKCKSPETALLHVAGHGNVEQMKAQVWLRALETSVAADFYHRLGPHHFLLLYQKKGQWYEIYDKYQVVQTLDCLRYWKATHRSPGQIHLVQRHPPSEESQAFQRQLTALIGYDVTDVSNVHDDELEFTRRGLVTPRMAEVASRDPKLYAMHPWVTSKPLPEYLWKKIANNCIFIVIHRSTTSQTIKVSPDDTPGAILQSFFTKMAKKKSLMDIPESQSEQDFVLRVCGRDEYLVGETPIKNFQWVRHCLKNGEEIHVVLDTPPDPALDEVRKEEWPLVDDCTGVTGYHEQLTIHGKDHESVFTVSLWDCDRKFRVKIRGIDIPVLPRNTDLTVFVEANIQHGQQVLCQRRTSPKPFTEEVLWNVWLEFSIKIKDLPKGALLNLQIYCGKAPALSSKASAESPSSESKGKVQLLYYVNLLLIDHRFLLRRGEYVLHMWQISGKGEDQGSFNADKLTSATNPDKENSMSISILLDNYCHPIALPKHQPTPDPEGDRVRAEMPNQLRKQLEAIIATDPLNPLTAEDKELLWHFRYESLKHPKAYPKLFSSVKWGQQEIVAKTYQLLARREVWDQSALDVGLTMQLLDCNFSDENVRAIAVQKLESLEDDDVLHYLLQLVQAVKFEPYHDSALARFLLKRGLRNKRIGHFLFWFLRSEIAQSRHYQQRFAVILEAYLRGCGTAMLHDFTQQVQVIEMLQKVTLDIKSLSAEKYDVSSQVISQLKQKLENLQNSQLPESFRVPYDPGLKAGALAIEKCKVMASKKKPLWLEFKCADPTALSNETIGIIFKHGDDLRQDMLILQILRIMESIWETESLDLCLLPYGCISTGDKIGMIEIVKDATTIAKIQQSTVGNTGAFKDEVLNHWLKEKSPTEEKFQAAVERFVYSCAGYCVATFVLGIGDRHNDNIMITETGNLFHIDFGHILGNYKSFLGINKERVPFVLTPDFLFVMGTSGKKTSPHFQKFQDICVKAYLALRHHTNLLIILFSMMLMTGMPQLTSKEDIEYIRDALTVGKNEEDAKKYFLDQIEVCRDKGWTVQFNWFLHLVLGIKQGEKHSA
T2 sequence (O00329 whole entry): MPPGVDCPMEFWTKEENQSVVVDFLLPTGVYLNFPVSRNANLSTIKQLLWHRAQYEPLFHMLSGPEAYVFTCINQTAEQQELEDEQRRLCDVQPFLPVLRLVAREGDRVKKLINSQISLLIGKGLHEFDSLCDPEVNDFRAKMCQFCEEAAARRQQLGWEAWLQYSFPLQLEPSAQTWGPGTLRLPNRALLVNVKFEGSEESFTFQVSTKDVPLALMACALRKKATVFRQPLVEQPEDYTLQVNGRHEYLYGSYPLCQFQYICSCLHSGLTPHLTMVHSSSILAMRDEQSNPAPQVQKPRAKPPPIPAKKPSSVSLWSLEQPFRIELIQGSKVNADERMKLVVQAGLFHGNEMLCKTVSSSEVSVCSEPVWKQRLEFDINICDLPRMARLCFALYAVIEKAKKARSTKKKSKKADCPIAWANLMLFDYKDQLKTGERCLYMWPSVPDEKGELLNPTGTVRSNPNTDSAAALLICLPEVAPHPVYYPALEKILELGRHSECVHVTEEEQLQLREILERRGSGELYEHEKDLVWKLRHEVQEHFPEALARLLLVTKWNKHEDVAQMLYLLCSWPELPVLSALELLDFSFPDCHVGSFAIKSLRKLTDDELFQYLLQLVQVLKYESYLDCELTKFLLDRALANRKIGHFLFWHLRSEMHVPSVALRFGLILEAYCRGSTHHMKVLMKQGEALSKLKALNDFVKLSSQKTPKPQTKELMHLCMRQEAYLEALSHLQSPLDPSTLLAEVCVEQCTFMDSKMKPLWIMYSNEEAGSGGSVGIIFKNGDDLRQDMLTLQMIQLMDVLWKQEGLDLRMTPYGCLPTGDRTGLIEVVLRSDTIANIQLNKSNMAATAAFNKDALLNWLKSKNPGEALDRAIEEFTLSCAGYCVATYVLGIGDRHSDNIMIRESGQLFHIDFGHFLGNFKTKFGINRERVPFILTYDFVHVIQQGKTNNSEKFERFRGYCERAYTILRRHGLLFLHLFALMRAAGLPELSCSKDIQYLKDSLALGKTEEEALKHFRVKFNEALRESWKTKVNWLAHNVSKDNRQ
T2 sequence (P27986 whole entry partner): as the sequence (P27986 whole entry partner) above
T5 sequence (P42338 whole entry): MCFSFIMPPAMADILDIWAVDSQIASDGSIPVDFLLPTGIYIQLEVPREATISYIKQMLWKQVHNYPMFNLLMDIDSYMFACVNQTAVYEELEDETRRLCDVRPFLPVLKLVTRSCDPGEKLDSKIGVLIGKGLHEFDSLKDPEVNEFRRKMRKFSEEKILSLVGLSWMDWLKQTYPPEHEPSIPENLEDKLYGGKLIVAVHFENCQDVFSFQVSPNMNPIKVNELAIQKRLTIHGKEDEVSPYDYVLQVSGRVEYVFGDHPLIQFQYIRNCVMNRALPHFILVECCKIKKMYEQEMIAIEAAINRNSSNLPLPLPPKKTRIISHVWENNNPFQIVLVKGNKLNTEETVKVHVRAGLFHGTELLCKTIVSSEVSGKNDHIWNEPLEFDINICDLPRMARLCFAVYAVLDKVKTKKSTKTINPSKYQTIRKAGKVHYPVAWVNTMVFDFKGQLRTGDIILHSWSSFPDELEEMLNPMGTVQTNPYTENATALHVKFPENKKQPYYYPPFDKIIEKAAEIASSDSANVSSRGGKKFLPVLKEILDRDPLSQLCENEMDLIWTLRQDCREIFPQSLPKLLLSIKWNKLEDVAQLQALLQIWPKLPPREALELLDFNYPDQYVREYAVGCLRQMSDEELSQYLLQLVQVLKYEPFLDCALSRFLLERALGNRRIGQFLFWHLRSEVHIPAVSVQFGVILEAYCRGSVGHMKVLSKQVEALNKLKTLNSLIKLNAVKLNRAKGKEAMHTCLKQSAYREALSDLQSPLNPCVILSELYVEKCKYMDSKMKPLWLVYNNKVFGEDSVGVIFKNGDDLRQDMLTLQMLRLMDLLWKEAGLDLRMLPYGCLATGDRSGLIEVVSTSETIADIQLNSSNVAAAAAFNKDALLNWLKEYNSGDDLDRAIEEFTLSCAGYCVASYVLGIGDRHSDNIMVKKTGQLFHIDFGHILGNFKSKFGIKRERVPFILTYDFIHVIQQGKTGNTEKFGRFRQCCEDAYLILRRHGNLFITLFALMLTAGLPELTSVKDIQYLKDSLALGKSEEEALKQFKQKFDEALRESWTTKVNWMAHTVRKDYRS
T5 sequence (P27986 whole entry partner): as the sequence (P27986 whole entry partner) above

SMILES	IC50 [1, 8] [µM]	IC50 [1, 9] [µM]	IC50 [2, 10] [µM]	IC50 [2, 11] [µM]	IC50 [3, 12] [µM]	IC50 [3, 13] [µM]	IC50 [4] [µM]	IC50 [5] [µM]	IC50 [6] [µM]	IC50 [7] [µM]
O=C(Nc1ccc(-c2nccc(N3CCOCC3)n2)cc1)NC1CC1 [Example 26, 1-cyclopropyl-3-(4-(4-morpholinopyrimidin-2-yl)phenyl)urea]	0.1 to 1	0.1 to 1	≥ 10	≥ 10	1 to 10	1 to 10	≥ 10	1 to 10	≥ 10	0.1 to 1
O=C(Nc1ccc(-c2ccnc(N3CCOCC3)n2)cc1)NC1CC1 [Example 28, 1-cyclopropyl-3-(4-(2-morpholinopyrimidin-4-yl)phenyl)urea]	1 to 10	1 to 10	≥ 10	≥ 10	≥ 10	≥ 10	≥ 10	≥ 10	≥ 10	1 to 10
CCNC(=O)Nc1ccc(-c2ccnc(N3CCOCC3)n2)cc1 [Example 29, 1-ethyl-3-(4-(2-morpholinopyrimidin-4-yl)phenyl)urea]	1 to 10	0.1 to 1	≥ 10	≥ 10	1 to 10	1 to 10	1 to 10	1 to 10	≥ 10	0.1 to 1
CNC(=O)Nc1ccc(-c2ccnc(N3CCOCC3)n2)cc1 [Example 30, 1-methyl-3-(4-(2-morpholinopyrimidin-4-yl)phenyl)urea]	1 to 10	1 to 10	1 to 10	1 to 10	1 to 10	1 to 10	1 to 10	1 to 10	≥ 10	1 to 10
C[C@H]1COCCN1c1ccnc(-c2ccc(NC(=O)NC3CC3)cc2)n1 [Example 35, (S)-1-cyclopropyl-3-(4-(4-(3-methylmorpholino)pyrimidin-2-yl)phenyl)urea]	0.1 to 1	0.1 to 1	≥ 10	≥ 10	≥ 10	≥ 10	≥ 10	≥ 10	≥ 10	0.1 to 1
CCNC(=O)Nc1ccc(-c2nccc(N3CCOC[C@@H]3C)n2)cc1 [Example 37, (S)-1-ethyl-3-(4-(4-(3-methylmorpholino)pyrimidin-2-yl)phenyl)urea]	1 to 10	0.1 to 1	≥ 10	≥ 10	≥ 10	≥ 10	≥ 10	≥ 10	≥ 10	0.1 to 1
CCNC(=O)Nc1ccc(-c2ccnc(N3CCOC[C@@H]3C)n2)cc1 [Example 38, (S)-1-ethyl-3-(4-(2-(3-methylmorpholino)pyrimidin-4-yl)phenyl)urea]	1 to 10	1 to 10	≥ 10	≥ 10	≥ 10	≥ 10	≥ 10	≥ 10	≥ 10	0.1 to 1
C[C@H]1COCCN1c1nccc(-c2ccc(NC(=O)NC3CC3)cc2)n1 [Example 39, (S)-1-cyclopropyl-3-(4-(2-(3-methylmorpholino)pyrimidin-4-yl)phenyl)urea]	1 to 10	1 to 10	≥ 10	≥ 10	≥ 10	≥ 10	≥ 10	≥ 10	≥ 10	0.1 to 1
C[C@H]1COCCN1c1nc(-c2ccc(NC(=O)NC3CC3)cc2)cc(-c2cccnc2[S+](C)[O-])n1 (stereo partly drawn) [Example 45, 1-cyclopropyl-3-(4-(2-((S)-3-methylmorpholino)-6-(2-(methylsulfinyl)pyridin-3-yl)pyrimidin-4-yl)phenyl)urea]	< 0.1	< 0.1	1 to 10	1 to 10	≥ 10	≥ 10	1 to 10	1 to 10	≥ 10	0.1 to 1
O=C(Nc1ccc(-c2nccc(N3CC4CCC(C3)O4)n2)cc1)NC1CC1 [Example 48, 1-(4-(4-(8-oxa-3-azabicyclo[3.2.1]octan-3-yl)pyrimidin-2-yl)phenyl)-3-cyclopropylurea]	0.1 to 1	0.1 to 1	≥ 10	≥ 10	1 to 10	1 to 10	≥ 10	≥ 10	≥ 10	0.1 to 1
CCNC(=O)Nc1ccc(-c2nccc(N3CC4CCC(C3)O4)n2)cc1 [Example 49, 1-(4-(4-(8-oxa-3-azabicyclo[3.2.1]octan-3-yl)pyrimidin-2-yl)phenyl)-3-ethylurea]	0.1 to 1	0.1 to 1	≥ 10	≥ 10	1 to 10	1 to 10	≥ 10	≥ 10	≥ 10	0.1 to 1
O=C(NCCO)Nc1ccc(-c2nccc(N3CC4CCC(C3)O4)n2)cc1 [Example 50, 1-(4-(4-(8-oxa-3-azabicyclo[3.2.1]octan-3-yl)pyrimidin-2-yl)phenyl)-3-(2-hydroxyethyl)urea]	< 0.1	< 0.1	≥ 10	≥ 10	1 to 10	1 to 10	≥ 10	≥ 10	≥ 10	0.1 to 1
O=C(NCC(F)F)Nc1ccc(-c2nccc(N3CC4CCC(C3)O4)n2)cc1 [Example 51, 1-(4-(4-(8-oxa-3-azabicyclo[3.2.1]octan-3-yl)pyrimidin-2-yl)phenyl)-3-(2,2-difluoroethyl)urea]	0.1 to 1	0.1 to 1	≥ 10	≥ 10	1 to 10	1 to 10	≥ 10	≥ 10	≥ 10	0.1 to 1
O=C(NCCF)Nc1ccc(-c2nccc(N3CC4CCC(C3)O4)n2)cc1 [Example 52, 1-(4-(4-(8-oxa-3-azabicyclo[3.2.1]octan-3-yl)pyrimidin-2-yl)phenyl)-3-(2-fluoroethyl)urea]	0.1 to 1	0.1 to 1	≥ 10	≥ 10	1 to 10	1 to 10	≥ 10	≥ 10	≥ 10	0.1 to 1
C[C@H]1COCCN1c1ccnc(-c2ccc(NC(=O)NCCO)cc2)n1 [Example 53, (S)-1-(2-hydroxyethyl)-3-(4-(4-(3-methylmorpholino)pyrimidin-2-yl)phenyl)urea]	0.1 to 1	0.1 to 1	≥ 10	≥ 10	≥ 10	≥ 10	1 to 10	≥ 10	≥ 10	0.1 to 1
